From PubChem BioAssay (NCI)
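Where inhibition never reached the appropriate level, the endpoint shown equals the highest concentration tested. Otherwise, values were interpolated linearly from a five-concentration, 48-hour dose response in 96-well plates. GI50 marks 50% less growth. TGI is the concentration that stops growth completely.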

What was measured:
Assay in all cases: DTP human tumour cell line panel, 48 h
[1] = tested on: UACC-257 melanoma
[2] = tested on: T-47D breast
[3] = tested on: CAKI-1 renal
[4] = tested on: TK-10 renal
[5] = tested on: M14 melanoma
[6] = tested on: OVCAR-8 ovarian
[7] = tested on: SK-MEL-5 melanoma
[8] = tested on: OVCAR-3 ovarian
[9] = tested on: MDA-MB-435
[10] = tested on: SF-539 CNS

## CC(C)C(C(=O)O)N1C(=O)c2ccccc2C1=O (centres undefined)
[1]
  TGI: > 100 µM
[2]
  TGI: > 100 µM
[3]
  TGI: > 100 µM
[4]
  TGI: > 100 µM
[5]
  TGI: > 100 µM
[6]
  TGI: > 100 µM
[7]
  TGI: > 100 µM
[8]
  TGI: > 100 µM
[9]
  TGI: > 100 µM

## COC(=O)c1ccc2c(c1)S/C(=C/c1ccc3ccc4cccc5ccc1c3c45)S2
[1]
  TGI: > 100 µM
[2]
  TGI: > 100 µM
[3]
  TGI: > 100 µM
[4]
  TGI: > 100 µM
[10]
  TGI: > 100 µM
[5]
  TGI: > 100 µM
[6]
  TGI: > 100 µM
[7]
  TGI: > 100 µM
[8]
  TGI: 49.3 µM
[9]
  TGI: 74.3 µM

## O[C@@]12Cc3c([nH]c4ccccc34)[C@@H]3Oc4cccc5c4[C@@]31CCN(CC1CC1)[C@@H]2C5
[1]
  TGI: 42 µM
[3]
  TGI: 34.2 µM
[4]
  TGI: 33.7 µM
[10]
  TGI: 36.3 µM
[5]
  TGI: 39.4 µM
[6]
  TGI: 29 µM
[7]
  TGI: 40.7 µM
[8]
  TGI: 36.8 µM
[9]
  TGI: 29.2 µM

## COC(=O)C1=C(OC(=O)/C(=C/c2ccc(Cl)cc2)c2ccc(Cl)cc2)C(C(=O)OC)[C@]2(O)[C@@H](C(=O)OC)[C@H]1C[C@@H](c1ccccc1)[C@@H]2C(=O)OC (some centres undefined)
[1]
  TGI: > 100 µM
[2]
  TGI: > 100 µM
[3]
  TGI: > 100 µM
[4]
  TGI: > 100 µM
[10]
  TGI: > 100 µM
[5]
  TGI: > 100 µM
[6]
  TGI: > 100 µM
[7]
  TGI: > 100 µM
[8]
  TGI: > 100 µM
[9]
  TGI: > 100 µM

## CCCC1CCC(=C2C(=O)CCC2=O)O1 (centres undefined)
[1]
  TGI: > 100 µM
[2]
  TGI: > 100 µM
[3]
  TGI: > 100 µM
[4]
  TGI: > 100 µM
[10]
  TGI: > 100 µM
[5]
  TGI: > 100 µM
[6]
  TGI: > 100 µM
[8]
  TGI: > 100 µM
[9]
  TGI: > 100 µM

## Cn1c(-c2ccccc2)cc(-c2cccs2)c1-c1cccs1
[1]
  TGI: > 51 µM
[3]
  TGI: > 100 µM
[10]
  TGI: > 100 µM
[6]
  TGI: > 100 µM
[7]
  TGI: > 100 µM
[8]
  TGI: > 100 µM

## Nc1nc(Nc2ccccc2)c2[nH]cnc2n1
[1]
  TGI: > 100 µM
[2]
  TGI: > 100 µM
[3]
  TGI: > 100 µM
[4]
  TGI: > 100 µM
[10]
  TGI: > 100 µM
[5]
  TGI: > 100 µM
[6]
  TGI: > 100 µM
[7]
  TGI: > 100 µM
[8]
  TGI: > 100 µM
[9]
  TGI: > 100 µM

## OCCN(CCO)c1ncnc2nc[nH]c12
[1]
  TGI: > 100 µM
[2]
  TGI: > 100 µM
[3]
  TGI: > 100 µM
[4]
  TGI: > 100 µM
[5]
  TGI: > 100 µM
[6]
  TGI: > 100 µM
[7]
  TGI: > 100 µM
[8]
  TGI: > 100 µM
[9]
  TGI: > 100 µM

## CC1=NN(c2nc(N)nc(/C(C#N)=C\c3csc([N+](=O)[O-])c3)n2)C(C)(C)C1
[1]
  TGI: > 100 µM
[2]
  TGI: 56.9 µM
[3]
  TGI: > 100 µM
[4]
  TGI: 95.5 µM
[10]
  TGI: > 100 µM
[5]
  TGI: > 100 µM
[6]
  TGI: 64.7 µM
[7]
  TGI: > 100 µM
[8]
  TGI: 78.9 µM
[9]
  TGI: > 100 µM

## O=c1c2cc(S(=O)(=O)O)ccc2nc(COc2ccc(Oc3ccc(Cl)cc3Cl)cc2)n1-c1ccc(Oc2ccc(Cl)cc2)cc1Cl
[1]
  TGI: 57.4 µM
[2]
  TGI: > 100 µM
[3]
  TGI: > 100 µM
[4]
  TGI: 58.8 µM
[10]
  TGI: 32.3 µM
[5]
  TGI: 39.9 µM
[6]
  TGI: 44.3 µM
[7]
  TGI: 34.6 µM
[8]
  TGI: 36.9 µM
[9]
  TGI: 39.6 µM

## CC1=C(O)C2=C(C(=O)C1=O)[C@@H](C)CC[C@@H]2[C@@H](C)C/C=C/C(C)(C)O
[1]
  TGI: > 100 µM
[2]
  TGI: 78.2 µM
[3]
  TGI: > 100 µM
[10]
  TGI: > 100 µM
[5]
  TGI: > 100 µM
[6]
  TGI: > 100 µM
[7]
  TGI: > 100 µM
[8]
  TGI: 79.2 µM
[9]
  TGI: > 100 µM

## CC12C=CC(=O)C=C1CCC1C3CCC(O)(C(=O)CO)C3(C)CC(O)C12F (centres undefined)
[1]
  TGI: > 100 µM
[2]
  TGI: > 100 µM
[3]
  TGI: > 100 µM
[4]
  TGI: > 100 µM
[10]
  TGI: > 100 µM
[5]
  TGI: > 100 µM
[6]
  TGI: > 100 µM
[7]
  TGI: > 100 µM
[8]
  TGI: > 100 µM
[9]
  TGI: > 100 µM

## Nc1nc(O)c2ncn([C@H]3CC[C@@H](CO)O3)c2n1
[1]
  TGI: > 100 µM
[2]
  TGI: > 100 µM
[3]
  TGI: > 100 µM
[4]
  TGI: > 100 µM
[5]
  TGI: > 100 µM
[6]
  TGI: > 100 µM
[7]
  TGI: > 100 µM
[8]
  TGI: > 100 µM
[9]
  TGI: > 100 µM

## COc1ccc(Oc2cccc(C3C4C(=O)N(c5ccc(C)c(Cl)c5)C(=O)C4ON3C(C(N)=O)c3ccccc3)c2)cc1 (centres undefined)
[1]
  TGI: 29.3 µM
[2]
  TGI: 33 µM
[3]
  TGI: > 50 µM
[4]
  TGI: > 50 µM
[10]
  TGI: 21.8 µM
[5]
  TGI: > 50 µM
[6]
  TGI: > 50 µM
[7]
  TGI: 32.2 µM
[8]
  TGI: > 50 µM
[9]
  TGI: > 50 µM

## C/C(=N/N=C(\[O-])c1ccncc1)C(F)(F)F.C/C(=N\N=C(/[O-])c1ccncc1)C(F)(F)F.[Ni+2]
[1]
  GI50: > 1 µM
  TGI: > 1 µM
[2]
  GI50: > 1 µM
  TGI: > 1 µM
